System: Corynaebacterium xerosis
Assay: In vitro deodorant activity and durability test (CFU counting in culture vials)
Type: cell-based
Details: for Number of CFU/ml at t + 24 h / Number of CFU/ml at t + 48 h: 37° C.
Description: The test is carried out in vitro.
The compound 1 and the benzyl-4-benzoyloxybenzoate (reference compound described in the international patent application WO 91/07165) are both 10% diluted in benzylbenzoate, and incorporated in a specific culture medium at the moment of distribution in 50 ml vials.
The composition of the vials is characterized as follows: • Vial No. 1 • Brain Heart Infusion (medium)+0.5% Tween 40 • Compound 1 or benzyl-4-benzoyloxybenzoate—0.25% • Enzyme (Lipozyme® CALB, Novozymes)—2% • Bacteria (Corynaebacterium xerosis)—about 10^6 CFU/ml • Vial No. 2 • Brain Heart Infusion (medium)+0.5% Tween 40 • Compound 1 or benzyl-4-benzoyloxybenzoate—0.25% • Bacteria (Corynaebacterium xerosis)—about 10^6 CFU/ml • Vial No. 3 • Brain Heart Infusion (medium)+0.5% Tween 40 • Compound 1 or benzyl-4-benzoyloxybenzoate—0.25% • Enzyme (Lipozyme® CALB, Novozymes)—2%
Afterwards, the vials are incubated under stirring at 37° C. for 48 hours.
After 24 hours, a collection is performed, and 100 μl of a dilution to 1/1000th are spread out on gelose. Counting of the number of CFU (Colony Forming Units) is performed.
It is the comparison of the ratios between the amount of CFU/ml at a time t for the product+enzyme and the product alone which allows assessing the inhibiting activity of the product.

[1] = Vial 1: product 0.25% + enzyme (Lipozyme CALB) 2% + bacteria, Brain Heart Infusion + 0.5% Tween 40
[2] = Vial 2: product 0.25% + bacteria, no enzyme, Brain Heart Infusion + 0.5% Tween 40
[3] = Vial 3: product 0.25% + enzyme 2%, no bacteria added

| SMILES | Number of CFU/ml at t + 24 h [1] | Number of CFU/ml at t + 48 h [1] | Number of CFU/ml at t + 24 h [2] | Number of CFU/ml at t + 48 h [2] | Number of CFU/ml at t + 24 h [3] [CFU/ml] | Number of CFU/ml at t + 48 h [3] [CFU/ml] | deodorant activity compared with benzyl-4-benzoyloxybenzoate (after 24 hours) | deodorant activity relative to the benzyl-4-benzoyloxybenzoate (after 48 hours) |
| --- | --- | --- | --- | --- | --- | --- | --- | --- |
| O=C(OCc1ccccc1)c1ccc(OC(=O)c2ccc(Oc3ccccc3)cc2)cc1 [Compound 1, Benzyl[4-(4-Phenoxy)Benzoyloxy]Benzoate] | 10^7 CFU/ml | 36000 ^ CFU/ml | 10^8 CFU/ml | 3.2 × 10^6 CFU/ml | 0 | 0 | comparable | significantly higher |
| O=C(OCc1ccccc1)c1ccc(OC(=O)c2ccccc2)cc1 [benzyl-4-benzoyloxybenzoate, reference compound] | 2.7 × 10^6 CFU/ml | 10^8 CFU/ml | 10^8 CFU/ml | 10^9 CFU/ml | 0 | 0 |  |  |
